Assays:
[1] = biological target: T1, UBA6 Ubiquitin-like modifier-activating enzyme 6 (Homo sapiens, UniProt A0AVT1); experiment: competitive isoTOP-ABPP; assay type: binding; conditions: for R value (DMSO/fragment) for probe 1 labeling: A0AVT1_K409
T1 construct: isoTOP-ABPP experiments performed in cell lysates (in vitro); endogenous in cells; host or cells: MDA-MB-231 soluble lysate
T1 sequence (A0AVT1 1-1052): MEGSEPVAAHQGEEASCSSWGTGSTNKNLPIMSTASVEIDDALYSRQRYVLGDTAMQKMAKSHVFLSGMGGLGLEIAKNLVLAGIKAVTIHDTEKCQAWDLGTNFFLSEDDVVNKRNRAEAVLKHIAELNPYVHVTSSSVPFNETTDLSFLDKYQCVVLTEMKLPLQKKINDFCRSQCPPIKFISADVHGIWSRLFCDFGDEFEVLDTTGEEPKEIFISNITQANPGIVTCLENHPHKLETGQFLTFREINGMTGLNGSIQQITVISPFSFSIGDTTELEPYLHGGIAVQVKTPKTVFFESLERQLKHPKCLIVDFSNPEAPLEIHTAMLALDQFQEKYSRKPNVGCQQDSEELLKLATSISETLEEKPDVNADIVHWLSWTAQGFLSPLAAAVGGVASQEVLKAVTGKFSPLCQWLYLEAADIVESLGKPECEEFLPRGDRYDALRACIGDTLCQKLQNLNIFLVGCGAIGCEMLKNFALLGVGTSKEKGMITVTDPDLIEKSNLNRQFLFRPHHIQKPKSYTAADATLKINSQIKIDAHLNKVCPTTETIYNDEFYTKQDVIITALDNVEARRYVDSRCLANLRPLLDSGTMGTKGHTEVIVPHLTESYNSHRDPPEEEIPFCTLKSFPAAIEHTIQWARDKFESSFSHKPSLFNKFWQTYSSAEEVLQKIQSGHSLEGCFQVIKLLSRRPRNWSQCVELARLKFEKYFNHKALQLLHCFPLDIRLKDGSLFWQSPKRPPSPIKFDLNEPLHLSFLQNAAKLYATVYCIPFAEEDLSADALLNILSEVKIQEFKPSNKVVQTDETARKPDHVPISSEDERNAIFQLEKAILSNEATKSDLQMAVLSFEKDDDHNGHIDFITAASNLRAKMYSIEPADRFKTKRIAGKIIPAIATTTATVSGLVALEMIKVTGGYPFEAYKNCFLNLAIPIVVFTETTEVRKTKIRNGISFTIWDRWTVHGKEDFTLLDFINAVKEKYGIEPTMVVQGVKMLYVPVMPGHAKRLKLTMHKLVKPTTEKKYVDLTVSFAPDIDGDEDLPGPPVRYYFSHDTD
Summary of the method: (§1)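 Here, isoTOP-ABPP measures loss of STP-alkyne labeling at individual lysines after fragment exposure in lysate. Activated esters are dosed at 50 μM, guanidinylating agents at 100 μM; the probe follows at 0.1 mM for 1 h. R ≥4 marks a liganded lysine.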

[2] = biological target: T2, RPL9P9 60S ribosomal protein L9 (Homo sapiens, UniProt P32969); experiment: competitive isoTOP-ABPP; assay type: binding; conditions: for isoTOP-ABPP reactivity ratio at lysine P32969_K82 / isoTOP-ABPP ratio (R) at liganded lysine P32969_K82: 50 uM, in vitro; for isoTOP-ABPP reactivity ratio at lysine P32969_K82: 231 sol; for isoTOP-ABPP ratio (R) at liganded lysine P32969_K82: sol, 231; for isoTOP-ABPP ratio, lysine P32969_K82: 50 uM_231_sol_in vitro
T2 construct: isoTOP-ABPP experiments performed in cell lysates (in vitro); endogenous in cells; host or cells: soluble proteome of human cancer cell lines (MDA-MB-231; Ramos and Jurkat also prepared)
Summary of the method: as §1

Question: Which “R value (DMSO/fragment) for probe 1 labeling” value (shortened to “R value (DMSO/fragment)”) ([1]; 50 uM, 231 sol, in vitro) does the source give for `O=C(CCc1cn(-c2ccccc2)nc1-c1ccccc1)Oc1c(F)c(F)c(F)c(F)c1F` [fragment 19, Pentafluorophenyl 3-(1,3-diphenyl-1H-pyrazol-4-yl)propanoate] here?
Answer: 1.5

Question: For `Cn1cc(CC(=O)Oc2c(F)c(F)c(F)c(F)c2F)c2ccccc21` [fragment 22, Pentafluorophenyl 2-(1-methyl-1H-indol-3-yl)acetate], which “R value (DMSO/fragment)” value ([1]; 50 uM, 231 sol, in vitro) is on record?
Answer: 1.6

Question: With `COc1cc(CCC(=O)Oc2c(F)c(F)c(F)c(F)c2F)cc(OC)c1OC` [fragment 23, Pentafluorophenyl 3-(3,4,5-trimethoxyphenyl)propanoate] as the compound, how does the “R value (DMSO/fragment)” value ([1]; 50 uM, 231 sol, in vitro) read?
Answer: 1.3

Question: Which “isoTOP-ABPP reactivity ratio at lysine A0AVT1_K409” value ([1]; 50 uM, 231 sol, in vitro) does the source give for `O=C(Oc1c(F)c(F)c(F)c(F)c1F)c1ccc2ccccc2n1` [fragment 25, Pentafluorophenyl quinoline-2-carboxylate] here?
Answer: 1.4

Question: With `O=C(Oc1ccc([N+](=O)[O-])cc1[N+](=O)[O-])c1cc(C(F)(F)F)cc(C(F)(F)F)c1` [fragment 31, 2,4-Dinitrophenyl 3,5-bis(trifluoromethyl)benzoate] as the compound, how does the “isoTOP-ABPP reactivity ratio at lysine P32969_K82” value [2] read?
Answer: 0.9

Question: Which “isoTOP-ABPP reactivity ratio at lysine P32969_K82” value [2] does the source give for `Cn1cc(CC(=O)Oc2ccc([N+](=O)[O-])cc2[N+](=O)[O-])c2ccccc21` [fragment 32, 2,4-Dinitrophenyl 2-(1-methyl-1H-indol-3-yl)acetate] here?
Answer: 1.0

Question: Which “isoTOP-ABPP ratio (R) at liganded lysine P32969_K82” value [2] does the source give for `O=C(Oc1ccc([N+](=O)[O-])cc1[N+](=O)[O-])c1ccc2ccccc2n1` [fragment 35, 2,4-Dinitrophenyl quinoline-2-carboxylate] here?
Answer: 0.8

Question: With `O=C(Oc1ccc([N+](=O)[O-])cc1[N+](=O)[O-])c1ccc(Oc2ccccc2)cc1` [fragment 39, 2,4-Dinitrophenyl 4-phenoxybenzoate] as the compound, how does the “isoTOP-ABPP ratio (R) at liganded lysine P32969_K82” value [2] read?
Answer: 0.7

Question: Which “isoTOP-ABPP ratio (R) at liganded lysine A0AVT1_K409” value ([1]; 50 uM, in vitro, sol, 231) does the source give for `CC(C)(C)OC(=O)NCCCC(=O)Oc1ccc([N+](=O)[O-])cc1[N+](=O)[O-]` [fragment 41, 2,4-Dinitrophenyl 4-((tert-butoxycarbonyl)amino)butanoate] here?
Answer: 6.6

Question: And the “isoTOP-ABPP ratio (R) at liganded lysine P32969_K82” value [2]?
Answer: 0.9

Question: For `CC(=O)Oc1ccc([N+](=O)[O-])cc1[N+](=O)[O-]` [fragment 43, 2,4-Dinitrophenyl acetate], which “isoTOP-ABPP ratio (R) at liganded lysine P32969_K82” value [2] is on record?
Answer: 0.9

Question: For `N#Cc1ccc(C(=O)Oc2ccc([N+](=O)[O-])cc2[N+](=O)[O-])cc1` [fragment 44, 2,4-Dinitrophenyl 4-cyanobenzoate], which “isoTOP-ABPP ratio, lysine P32969_K82” value [2] is on record?
Answer: 14.5

Question: With `O=C(CCc1ccc2c(c1)OCO2)Oc1ccc([N+](=O)[O-])cc1[N+](=O)[O-]` [fragment 45, 2,4-Dinitrophenyl 3-(benzo[d][1,3]dioxol-5-yl)propanoate] as the compound, how does the “isoTOP-ABPP ratio, lysine A0AVT1_K409” value ([1]; 50 uM_231_sol_in vitro) read?
Answer: 6.3

Question: And the “isoTOP-ABPP ratio, lysine P32969_K82” value [2]?
Answer: 1.0

Question: With `O=C(ON1C(=O)CCC1=O)c1cc(C(F)(F)F)cc(C(F)(F)F)c1` [fragment 46, 3,5-Bis(trifluoromethyl)benzoic acid NHS ester] as the compound, how does the “isoTOP-ABPP ratio, lysine P32969_K82” value [2] read?
Answer: 0.5
